This passage reports EC50 results from patent US9278922B2 (ABBVIE INC., priority 2009, dated 2016).

What is called EC50 is the concentration needed to bring the measured effect to its halfway point.

The test has as its system HCV 1b-Con-1 replicon. The test is described as follows: HCV 1b-Con-1 replicon assay (luciferase reporter gene, HuH-7 cells). The conditions noted are these: Hepatitis C virus, Huh-7, luciferase reporter gene activity in the replicon, in the presence of 5% FBS. Format: cell-based, Hepatitis C virus (HCV) genotype 1b-Con1. (In general: In antiviral work, replicon cells carry a viral genome segment that copies itself.)

With `COC(=O)N[C@H](C(=O)N1CCC[C@H]1C(=O)Nc1ccc(CN(Cc2ccc(NC(=O)[C@@H]3CCCN3C(=O)[C@@H](NC(=O)OC)[C@H](C)O)cc2)c2ccccc2)cc1)[C@H](C)O` [Example 49, dimethyl [(phenylimino)bis{methanediylbenzene-4,1-diylcarbamoyl(2S)pyrrolidine-2,1-diyl[(2S,3S)-3-hydroxy-1-oxobutane-1,2-diyl]}]biscarbamate], the EC50 fell in the range of 1 to 10 nM.
On to `CC[C@@H](C)[C@H](NC(=O)OC)C(=O)N1CCC[C@H]1C(=O)Nc1ccc(CN(Cc2ccc(NC(=O)[C@@H]3CCCN3C(=O)[C@@H](NC(=O)OC)[C@H](C)CC)cc2)c2ccccc2)cc1` [Example 50, dimethyl[(phenylimino)bis{methanediylbenzene-4,1-diylcarbamoyl(2S)pyrrolidine-2,1-diyl[(2S,3R)-3-methyl-1-oxopentane-1,2-diyl]}]biscarbamate], for which the EC50 was below 1 nM.
The same measure for `COC(=O)N[C@H](C(=O)N1CCC[C@H]1C(=O)Nc1ccc(CN(Cc2ccc(NC(=O)[C@@H]3CCCN3C(=O)[C@@H](NC(=O)OC)[C@@H](C)OC)cc2)c2ccccc2)cc1)[C@@H](C)OC` [Example 51, dimethyl[(phenylimino)bis{methanediylbenzene-4,1-diylcarbamoyl(2S)pyrrolidine-2,1-diyl[(2S,3R)-3-methoxy-1-oxobutane-1,2-diyl]}]biscarbamate]: 1 to 10 nM; for `COC(=O)N[C@H](C(=O)N1CCC[C@H]1C(=O)Nc1ccc(CN(Cc2ccc(NC(=O)[C@@H]3CCCN3C(=O)[C@@H](NC(=O)OC)C(C)(C)OC)cc2)c2ccccc2)cc1)C(C)(C)OC` [Example 52, dimethyl [(phenylimino)bis{methanediylbenzene-4,1-diylcarbamoyl(2S)pyrrolidine-2,1-diyl[(2S)-3-methoxy-3-methyl-1-oxobutane-1,2-diyl]}]biscarbamate]: 1 to 10 nM.
With `COC(=O)N[C@H](C(=O)N1CCC[C@H]1C(=O)Nc1ccc(CN(Cc2ccc(NC(=O)[C@@H]3CCCN3C(=O)[C@@H](NC(=O)OC)C(C)(C)C)cc2)c2ccccc2)cc1)[C@H]1CCOC1` [Example 53, N-(methoxycarbonyl)-3-methyl-L-valyl-N-(4-{[{4-[(1-{(2S)-2-[(methoxycarbonyl)amino]-2-[(3R)-tetrahydrofuran-3-yl]acetyl}-L-prolyl)amino]benzyl}(phenyl)amino]methyl}phenyl)-L-prolinamide], the EC50 was below 1 nM.
In the case of `CCN(CC)[C@@H](C(=O)N1CCC[C@H]1C(=O)Nc1ccc(CN(Cc2ccc(NC(=O)[C@@H]3CCCN3C(=O)[C@@H](c3ccccc3)N(CC)CC)cc2)c2ccc(F)cc2)cc1)c1ccccc1` [Example 54, (2S,2′S)-N,N-{[(4-fluorophenyl)imino]bis(methanediylbenzene-4,1-diyl)}bis{1-[(2R)-2-(diethylamino)-2-phenylacetyl]pyrrolidine-2-carboxamide}] it was below 1 nM.
For the compound `O=C(Nc1ccc(CN(Cc2ccc(NC(=O)[C@@H]3CCCN3C(=O)[C@@H](c3ccccc3)N3CCCC3)cc2)c2ccccc2)cc1)[C@@H]1CCCN1C(=O)[C@@H](c1ccccc1)N1CCCC1` [Example 55, (2S,2′S)-N,N′-[(phenylimino)bis(methanediylbenzene-4,1-diyl)]bis{1-[(2R)-2-phenyl-2-pyrrolidin-1-ylacetyl]pyrrolidine-2-carboxamide}], the EC50 was below 1 nM.
As to `COC(=O)N[C@H](C(=O)N1CCC[C@H]1C(=O)Nc1ccc(CN(Cc2ccc(NC(=O)[C@@H]3CCCN3C(=O)[C@@H](c3ccccc3)N3CCCC3)cc2)c2ccccc2)cc1)C(C)(C)C` [Example 56, N-(methoxycarbonyl)-3-methyl-L-valyl-N-[4-({phenyl[4-({1-[(2R)-2-phenyl-2-pyrrolidin-1-ylacetyl]-L-prolyl}amino)benzyl]amino}methyl)phenyl]-L-prolinamide], the EC50 is below 1 nM.
`O=C(Nc1ccc(CN(Cc2ccc(NC(=O)[C@@H]3CCCN3C(=O)[C@@H](c3ccccc3)N3CCOCC3)cc2)c2ccccc2)cc1)[C@@H]1CCCN1C(=O)[C@@H](c1ccccc1)N1CCOCC1` [Example 57, (2S,2′S)-N,N′-[(phenylimino)bis(methanediylbenzene-4,1-diyl)]bis{1-[(2R)-2-morpholin-4-yl-2-phenylacetyl]pyrrolidine-2-carboxamide}]: the EC50 was below 1 nM.
In the case of `COC(=O)N[C@H](C(=O)N1CCC[C@H]1C(=O)Nc1ccc(CN(Cc2ccc(NC(=O)[C@@H]3CCCN3C(=O)[C@@H](c3ccccc3)N3CCOCC3)cc2)c2ccccc2)cc1)C(C)(C)C` [Example 58, N-(methoxycarbonyl)-3-methyl-L-valyl-N-[4-({[4-({1-[(2R)-2-morpholin-4-yl-2-phenylacetyl]-L-prolyl}amino)benzyl](phenyl)amino}methyl)phenyl]-L-prolinamide] it was below 1 nM.
In the case of `COC(=O)N[C@H](C(=O)N1CCC[C@H]1C(=O)Nc1ccc(CN(Cc2ccc(NC(=O)[C@@H]3CCCN3C(=O)[C@@H](NC(=O)O[C@H]3CCOC3)C(C)(C)C)cc2)c2ccccc2)cc1)C(C)(C)C` [Example 59, methyl (3S)-tetrahydrofuran-3-yl[(phenylimino)bis{methanediylbenzene-4,1-diylcarbamoyl(2S)pyrrolidine-2,1-diyl[(2S)-3,3-dimethyl-1-oxobutane-1,2-diyl]}]biscarbamate] it was 10 to 100 nM; in that of `COC(=O)N[C@@H](Cc1ccccc1)C(=O)N1CCC[C@H]1C(=O)Nc1ccc(CN(Cc2ccc(NC(=O)[C@@H]3CCCN3C(=O)[C@H](Cc3ccccc3)NC(=O)OC)cc2)c2ccccc2)cc1` [Example 61, dimethyl [(phenylimino)bis{methanediylbenzene-4,1-diylcarbamoyl(2S)pyrrolidine-2,1-diyl[(2S)-1-oxo-3-phenylpropane-1,2-diyl]}]biscarbamate], 1 to 10 nM.
Take `CC[C@H](NC(=O)OC)C(=O)N1CCC[C@H]1C(=O)Nc1ccc(CN(Cc2ccc(NC(=O)[C@@H]3CCCN3C(=O)[C@@H](NC(=O)OC)C(C)(C)C)cc2)c2ccccc2)cc1` [Example 62, N-(methoxycarbonyl)-3-methyl-L-valyl-N-(4-{[{4-[(1-{(2S)-2-[(methoxycarbonyl)amino]butanoyl}-L-prolyl)amino]benzyl}(phenyl)amino]methyl}phenyl)-L-prolinamide]: the EC50 fell in the range of 1 to 10 nM.
The same measure for `COC(=O)N[C@@H]1CCC[C@H]2CC[C@@H](C(=O)Nc3ccc(CN(Cc4ccc(NC(=O)[C@@H]5CC[C@@H]6CCC[C@@H](NC(=O)OC)C(=O)N65)cc4)c4ccccc4)cc3)N2C1=O` [Example 63, dimethyl [(phenylimino)bis{methanediylbenzene-4,1-diylcarbamoyl[(3S,6R,9aS)-5-oxooctahydro-1H-pyrrolo[1,2-a]azepine-3,6-diyl]}]biscarbamate]: 10 to 100 nM; for `C=CC[C@H]1CC[C@@H](C(=O)Nc2ccc(CN(Cc3ccc(NC(=O)[C@@H]4CC[C@H](CC=C)N4C(=O)[C@@H](NC(=O)OC)C(C)(C)C)cc3)c3ccccc3)cc2)N1C(=O)[C@@H](NC(=O)OC)C(C)(C)C` [Example 64]: below 1 nM; for `CCN(CC)[C@@H](C(=O)N1CCC[C@H]1c1nc2cc(CN(Cc3ccc4[nH]c([C@@H]5CCCN5C(=O)[C@@H](c5ccccc5)N(CC)CC)nc4c3)c3ccccc3)ccc2[nH]1)c1ccccc1` [Example 65, N,N-bis[(2-{(2S)-1-[(2R)-2-(diethylamino)-2-phenylacetyl]pyrrolidin-2-yl}-1H-benzimidazol-5-yl)methyl]aniline]: below 1 nM.
In the case of `O=C([C@@H](c1ccccc1)N1CCCC1)N1CCC[C@H]1c1nc2cc(CN(Cc3ccc4[nH]c([C@@H]5CCCN5C(=O)[C@@H](c5ccccc5)N5CCCC5)nc4c3)c3ccccc3)ccc2[nH]1` [Example 66, N,N-bis[(2-{(2S)-1-[(2R)-2-phenyl-2-pyrrolidin-1-ylacetyl]pyrrolidin-2-yl}-1H-benzimidazol-5-yl)methyl]aniline] it was below 1 nM.
In the case of `O=C([C@@H](c1ccccc1)N1CCOCC1)N1CCC[C@H]1c1nc2cc(CN(Cc3ccc4[nH]c([C@@H]5CCCN5C(=O)[C@@H](c5ccccc5)N5CCOCC5)nc4c3)c3ccccc3)ccc2[nH]1` [Example 67, N,N-bis[(2-{(2S)-1-[(2R)-2-morpholin-4-yl-2-phenylacetyl]pyrrolidin-2-yl}-1H-benzimidazol-5-yl)methyl]aniline] it was below 1 nM.
Take `COC(=O)N[C@H](C(=O)N1CCC[C@H]1C(=O)Nc1ccc(CN(Cc2ccc(NC(=O)[C@@H]3CCCN3C(=O)[C@H](NC(=O)OC)c3ccccc3)cc2)c2ccccc2)cc1)C(C)(C)C` [Example 69]: the EC50 was below 1 nM.
As to `COC(=O)N[C@H](C(=O)N1CCC[C@H]1C(=O)Nc1ccc(CN(Cc2ccc(NC(=O)[C@@H]3CCCN3C(=O)[C@H](NC(=O)OC)c3ccccc3)cc2)c2ccccc2)cc1)C(C)C` [Example 70, N-(methoxycarbonyl)-L-valyl-N-(4-{[{4-[(1-{(2R)-2-[(methoxycarbonyl)amino]-2-phenylacetyl}-L-prolyl)amino]benzyl}(phenyl)amino]methyl}phenyl)-L-prolinamide], the EC50 was below 1 nM.
The same measure for `CC[C@H](NC(=O)OC)C(=O)N1CCC[C@H]1C(=O)Nc1ccc(CN(Cc2ccc(NC(=O)[C@@H]3CCCN3C(=O)[C@H](NC(=O)OC)c3ccccc3)cc2)c2ccccc2)cc1` [Example 71, methyl {(1R)-2-[(2S)-2-{[4-({[4-({[(2S)-1-{(2S)-2-[(methoxycarbonyl)amino]butanoyl}pyrrolidin-2-yl]carbonyl}amino)benzyl](phenyl)amino}methyl)phenyl]carbamoyl}pyrrolidin-1-yl]-2-oxo-1-phenylethyl}carbamate]: below 1 nM; for `COC(=O)N[C@H](C(=O)N1CCC[C@H]1C(=O)Nc1ccc(CN(Cc2ccc(NC(=O)[C@@H]3CCCN3C(=O)[C@H](NC(=O)OC)c3ccccc3)cc2)c2ccccc2)cc1)[C@H]1CCOC1` [Example 72]: below 1 nM.
In the case of `COC(=O)N[C@H](C(=O)N1CC(F)(F)C[C@H]1C(=O)Nc1ccc(CN(Cc2ccc(NC(=O)[C@@H]3CC(F)(F)CN3C(=O)[C@@H](NC(=O)OC)C(C)(C)C)cc2)c2ccccc2)cc1)C(C)(C)C` [Example 73] it was below 1 nM.
